{"source": "patent US20240423246A1", "about": "“RAPAMYCIN FOR INCREASED MILK PRODUCTION” (THE STATE OF ISRAEL, MINISTRY OF AGRICULTURE & RURAL …, priority 2023, published 2024)", "key": {"[1]": {"assay": "Mammary tissue morphology and pathology after intramammary rapamycin (H&E)", "type": "in vivo, bovine (Holstein calves)", "description": "(§1) Three-month-old female Holstein calves (˜90 kg body weight [BW]) that were raised on the Volcani Center's experimental farm were used in these experiments. During the experimental periods, each mammary gland was administered via the teat canal with 2 mL of vehicle, composed of sterile PBS containing 10% polyethylene glycol (Sigma, St. Louis, MO) and 10% Tween 80 (Sigma). In individual experiments, the vehicle was supplemented with Evans blue to analyze the penetration of this solution into the mammary epithelium, or with rapamycin to analyze its effect on cellular activities. The vehicle was administered using a sterile 22G IV cannula (Deltaven, Viadana, (MN) Italy), cut to ˜1.5 cm and inserted (without the needle) into the teat canal. […] In the relevant experiments, estrogen (0.1 mg/kg per day, Sigma) and progesterone (0.25 mg/kg per day, Sigma) were administered following the rapamycin treatment by daily subcutaneous injections for 4 consecutive days. The design of the studies was based on the distinct morphology and activity of the individual “quarters” (i.e., glands) of the bovine udder which can be individually affected. Thus, in studies analyzing the rapamycin effects, front or rear glands of each side of the calf served as internal controls for the other two rapamycin-administered glands. The dye Evans blue was added to one of the vehicle-treated glands to follow its penetration into the epithelial morphology in close and far regions from the teat (FIG. 1).\nBovine mammary samples were fixed in Bouin's solution, dehydrated in a graded ethanol series (50% to 100%), cleared in xylene and embedded in paraffin. Paraffin sections (5 μm) were stained with hematoxylin and eosin (H&E; Sigma) to visualize the morphology of the mammary layers.\n(§2) To determine an effective concentration and administration interval, mammalian target of rapamycin (mTOR) responsiveness to rapamycin administration was studied in parenchymal regions that were close to and far from the teat. Rapamycin was delivered to the parenchymatic region of two calves at two concentrations (4.16 or 8.32 mg/gland per day). The calves were sacrificed 24 h or 48 h later and the udders were removed. […] Note that complete repression of mTOR activity was avoided in these experiments to preserve the self-renewing capability of the epithelial stem cells.\nThe effect of 3 weeks of skip-a-day rapamycin administration (8.32 mg/gland per day) on stem cell self-renewal (FIGS. 3A-3F) was examined.\nTo study the effect of rapamycin administration and induced stem cell self-renewal on mammary cell proliferation and milk protein expression, front and rear mammary glands of three calves (six for each treatment) were infused with either vehicle or rapamycin for 3 weeks (8.3 mg/gland per day). […]"}, "[2]": {"tested_on": "bovine mammary epithelial stem cell population", "assay": "Propagation rate of cultured cells from vehicle- and rapamycin-treated glands", "type": "cell-based", "description": "For propagation rate, cells from each treatment were seeded in 96-well cell-culture plates (Corning, Corning, NY) at a density of 10,000 cells/well and cultured in mammary medium composed of DMEM-F12 medium containing 5% FBS, hydrocortisone ([…], Sigma), insulin ([…], Sigma), gentamicin ([…], Biological Industries), streptomycin and penicillin ([…] and 100 U/ml, respectively), hEGF (10 ng/ml, Merck, Darmstadt, Germany), hFGF2 (10 ng/ml, Merck), heparin (4 mg/ml, Merck), cholera toxin (10 ng/ml, Sigma) and B27 ([…], Invitrogen, Carlsbad, CA) (10) for the indicated period.\nRapamycin's effect on cell-propagation rate was analyzed in cultures from individual vehicle- and rapamycin-treated glands (FIG. 4A). This method produces a clear and significant distinction of the bovine mammary epithelial stem cell population from the more differentiated ones."}, "[3]": {"tested_on": "Notch1, Jagged1, Delta1, LGR4, LGR5", "assay": "Relative gene expression of stem cell markers in treated glands (real-time PCR)", "type": "in vivo, bovine (Holstein calves)", "conditions": "3 weeks skip-a-day rapamycin; not significant at P<0.05", "description": "FIG. 4A-4B: (FIG. 4A) Dispersed cells isolated from individual vehicle- and rapamycin-treated mammary glands were seeded in 96-well plates and cultured in mammary medium. At the indicated time points (arrows), cells were trypsinized, counted and reseeded. Inset: cell number at the end of the culture period. Bars represent mean±SEM. (FIG. 4B) Relative gene expression analysis of luminal progenitor marker (Stat5) and stem cell markers (Notch1, Jagged1, Delta1, LGR4, LGR5). N=4 for vehicle-treated and 3 for rapamycin-treated glands. Six wells of cells from each gland were analyzed.\nRNA was extracted from the parenchymal region of each mammary gland using TRIzol reagent and reverse-transcribed with the qScript Synthesis Kit (Quanta BioSciences, Beverly, MA). RNA quality and quantity were determined in a NanoDrop 1000 spectrophotometer (Thermo Fisher Scientific, Wilmington, DE). Quantitative real-time PCR analyses were performed in a StepOnePlus instrument (Applied Biosystems, Foster City, CA) in a […] reaction volume containing 1 μL cDNA, 5 μL PerfeCta SYBR Green FastMix, Rox (2X) (Quanta BioSciences) and 0.5 μL of the primers listed in Table 1. The thermal cycling conditions consisted of 20 s at 95° C. followed by 40 cycles of 3 s at 95° C. and 30 s at 60° C. […] Fold change (relative expression) was calculated using StepOne v2.1 and DataAssist v2.0 software (Applied Biosystems). […]"}, "mammary epithelial cells": {"tested_on": "mammary epithelial cells", "assay": "Mammary cell proliferation by PCNA staining after rapamycin followed by estrogen and progesterone", "type": "in vivo, bovine (Holstein calves)", "conditions": "3 weeks 8.3 mg/gland per day, then estrogen and progesterone for 4 days", "description": "FIGS. 6A-6C: (FIG. 6A) lower and (FIG. 6B) higher magnifications of PCNA-stained parenchymal cells and counterstained with hematoxylin. S, small ducts; L, large ducts. Bar=50 μm. (FIG. 6C) PCNA+ cells were analyzed in total (left plot), basal (middle plot) and luminal cell (right plot) populations of the small and large ducts. Six independent microscopic fields (X10 magnification) from each of the six glands treated with vehicle and six glands treated with rapamycin were analyzed. Overall, 127 ducts and 10,619 cells, and 122 ducts and 9999 cells were analyzed in the vehicle-treated and rapamycin-treated glands, respectively. ** P<0.01, *** P<0.001.\n(§3) Three-month-old female Holstein calves (˜90 kg body weight [BW]) that were raised on the Volcani Center's experimental farm were used in these experiments. During the experimental periods, each mammary gland was administered via the teat canal with 2 mL of vehicle, composed of sterile PBS containing 10% polyethylene glycol (Sigma, St. Louis, MO) and 10% Tween 80 (Sigma). In individual experiments, the vehicle was supplemented with Evans blue to analyze the penetration of this solution into the mammary epithelium, or with rapamycin to analyze its effect on cellular activities. The vehicle was administered using a sterile 22G IV cannula (Deltaven, Viadana, (MN) Italy), cut to ˜1.5 cm and inserted (without the needle) into the teat canal. […]"}, "[4]": {"molecular_target": "T1, mammalian target of rapamycin (mTOR) (Bos taurus, UniProt E1BFB4)", "assay": "S6 phosphorylation after 3 weeks of skip-a-day intramammary rapamycin administration (immunoblot)", "type": "in vivo, bovine (Holstein calves)", "description": "as §3, with “activities.” for “activities. The vehicle was administered using a sterile 22G IV cannula (Deltaven, Viadana, (MN) Italy), cut to ˜1.5 cm and inserted (without the needle) into the teat canal.”\nProteins from the parenchymal region of each mammary gland were extracted with RIPA buffer containing 10 mM Tris-HCl pH 7.5, 150 mM NaCl, 0.1% SDS, 1% sodium deoxycholate and 5 mM EDTA (Sigma), protease inhibitor cocktail and phosphatase inhibitor cocktail II (both from Sigma). Equal amounts of protein, determined by QPRO-BCA Kit Standard (Cyanagen, Bologna, Italy) according to the manufacturer's protocol, were subjected to SDS-PAGE. […] The expression levels of phosphorylated S6 (pS6) and β-actin were determined according to the signals generated with their respective antibodies. Signals were generated with WESTAR Supernova (Cyanagen, Bologna, Italy) combined with Super Signal chemiluminescent substrate (Thermo Fisher Scientific), and detected in a Syngene analyzer (Cambridge, UK)."}, "[5]": {"molecular_target": "T1, mammalian target of rapamycin (mTOR)", "assay": "S6 phosphorylation in mammary parenchyma after single intramammary rapamycin administration (immunoblot, immunohistochemistry)", "type": "in vivo, bovine (Holstein calves)", "description": "as §1\nImmunohistochemistry was performed on the 5-μm paraffin-embedded sections after antigen retrieval. The reaction with primary antibodies against β-casein (Barash lab), pS6 (Cell signaling Inc.), CK18 (GeneTex), and PCNA (BioLegend), was initiated by blocking the sections with 10% bovine serum albumen and 5% goat serum in 0.1% PBST for 1 h prior to overnight incubation with the first antibody at 4° C. Sections were washed and incubated with N-Histofine (Nichirei Biosciences, Tokyo, Japan) for 30 min at room temperature. Signals were generated with 3,3-diaminobenzidine (DAB) substrate (Vector Laboratories, Burlingame, CA).\nProteins from the parenchymal region of each mammary gland were extracted with RIPA buffer containing 10 mM Tris-HCl pH 7.5, 150 mM NaCl, 0.1% SDS, 1% sodium deoxycholate and 5 mM EDTA (Sigma), protease inhibitor cocktail and phosphatase inhibitor cocktail II (both from Sigma). Equal amounts of protein, determined by QPRO-BCA Kit Standard (Cyanagen, Bologna, Italy) according to the manufacturer's protocol, were subjected to SDS-PAGE. Fractionated proteins were transferred to nitrocellulose filters and the uploading of equal amounts of protein per sample was confirmed by staining the blot with Ponceau S (Sigma). The expression levels of phosphorylated S6 (pS6) and β-actin were determined according to the signals generated with their respective antibodies. Signals were generated with WESTAR Supernova (Cyanagen, Bologna, Italy) combined with Super Signal chemiluminescent substrate (Thermo Fisher Scientific), and detected in a Syngene analyzer (Cambridge, UK).\nas §2"}, "bovine mammary cell": {"tested_on": "bovine mammary cell", "conditions": "xanthosine administration; cited from earlier work"}, "[6]": {"conditions": "24 h after infusion, close to nipple, rapamycin 4.16 mg"}, "[7]": {"conditions": "24 h after infusion, close to nipple, rapamycin 8.32 mg"}, "[8]": {"conditions": "48 h after infusion, close to nipple, rapamycin 4.16 mg"}, "[9]": {"conditions": "48 h after infusion, close to nipple, rapamycin 8.32 mg"}, "[10]": {"conditions": "48 h after infusion, far from nipple, rapamycin 4.16 mg"}, "[11]": {"conditions": "48 h after infusion, far from nipple, rapamycin 8.32 mg"}}, "data": [{"smiles": "CO[C@H]1C[C@@H]2CC[C@@H](C)[C@@](O)(O2)C(=O)C(=O)N2CCCC[C@H]2C(=O)O[C@H]([C@H](C)C[C@@H]2CC[C@@H](O)[C@H](OC)C2)CC(=O)[C@H](C)/C=C(\\C)[C@@H](O)[C@@H](OC)C(=O)[C@H](C)C[C@H](C)/C=C/C=C/C=C/1C", "note": "[Rapamycin]", "values": [{"measurement": "differences in morphology between vehicle- and rapamycin-treated glands", "setting": "[1]; 3 weeks 8.3 mg/gland per day, then estrogen and progesterone for 4 days", "value": "no apparent differences"}, {"measurement": "effect on mammary gland morphology", "setting": "[1]; 3 weeks skip-a-day, 8.32 mg/gland per day", "value": "not associated with any detectable effect"}, {"measurement": "effect on tissue morphology in the parenchymatic regions", "setting": "[1]; 4.16 or 8.32 mg/gland, 24 h or 48 h after administration", "value": "did not seem to have any effect"}, {"measurement": "pathological consequences of the amount and methodology chosen", "setting": "[1]; intramammary administration", "value": "did not have pathological consequences"}, {"measurement": "propagation rate difference, cultures from rapamycin-treated vs vehicle-treated gland", "setting": "[2]; day 37 of culture", "value": 1.15, "unit": "fold"}, {"measurement": "propagation rate difference, cultures from rapamycin-treated vs vehicle-treated gland", "setting": "[2]; day 52 of culture", "value": 1.4, "unit": "fold"}, {"measurement": "propagation rate difference, cultures from rapamycin-treated vs vehicle-treated gland", "setting": "[2]; end of the culture period", "value": 2.6, "unit": "fold"}, {"measurement": "stem cell marker gene expression, more than in vehicle-treated counterparts", "setting": "[3]", "value": "8-20%"}, {"measurement": "increase in total number of PCNA+ cells", "setting": "mammary epithelial cells", "value": 20, "unit": "%"}, {"measurement": "decrease in S6 phosphorylation", "setting": "[4]; 3 weeks skip-a-day, 8.32 mg/gland per day, immunoblot 48 h after termination", "value": 53, "unit": "%"}, {"measurement": "decrease in mTOR activity", "setting": "[4]; skip-a-day, 3-week intramammary administration", "value": "~50", "unit": "%"}, {"measurement": "pS6/S6 relative to vehicle (100%)", "setting": "[5]; [6]", "value": "(66%)"}, {"measurement": "pS6/β-actin relative to vehicle (100%)", "setting": "[5]; [6]", "value": "(75%)"}, {"measurement": "pS6/S6 relative to vehicle (100%)", "setting": "[5]; [7]", "value": "(95%)"}, {"measurement": "pS6/β-actin relative to vehicle (100%)", "setting": "[5]; [7]", "value": "(63%)"}, {"measurement": "pS6/S6 relative to vehicle (100%)", "setting": "[5]; [8]", "value": "(71%)"}, {"measurement": "pS6/β-actin relative to vehicle (100%)", "setting": "[5]; [8]", "value": "(64%)"}, {"measurement": "pS6/S6 relative to vehicle (100%)", "setting": "[5]; [9]", "value": "(76%)"}, {"measurement": "pS6/β-actin relative to vehicle (100%)", "setting": "[5]; [9]", "value": "(81%)"}, {"measurement": "pS6/S6 relative to vehicle (100%)", "setting": "[5]; [10]", "value": "(93%)"}, {"measurement": "pS6/β-actin relative to vehicle (100%)", "setting": "[5]; [10]", "value": "(68%)"}, {"measurement": "pS6/S6 relative to vehicle (100%)", "setting": "[5]; [11]", "value": "(48%)"}, {"measurement": "pS6/β-actin relative to vehicle (100%)", "setting": "[5]; [11]", "value": "(56%)"}]}, {"smiles": "O=c1[nH]c(=O)c2ncn([C@@H]3O[C@H](CO)[C@@H](O)[C@H]3O)c2[nH]1", "note": "[xanthosine]", "values": [{"measurement": "suppression of bovine mammary cell proliferation", "setting": "bovine mammary cell", "value": 50, "unit": "%"}]}]}
